Legend:
Russian thistle = assay: Test D preemergence; type: in vivo, Salsola kali; settings: for Plant response rating (0 to 100), Russian Thistle: 16 g ai/ha, 0 is no effect, 100 is complete control; for Plant response rating: Russian Thistle: scale 0 to 100
From the text: Seeds of plant species selected from bluegrass (annual bluegrass, Poa annua), blackgrass (Alopecurus myosuroides), canarygrass (Phalaris minor), chickweed (common chickweed, Stellaria media), galium (catchweed bedstraw, Galium aparine), bromegrass, down (downy bromegrass, Bromus tectorum), Russian thistle (Salsola kali), field poppy (Papaver rhoeas), field violet (Viola arvensis), foxtail, green (green foxtail, Setaria viridis), deadnettle (henbit deadnettle, Lamium amplexicaule), ryegrass, Ital. (Italian ryegrass, Lolium multiflorum), kochia (Kochia scoparia), lambsquarters (Chenopodium album), oilseed rape (Brassica napus), pigweed (Amaranthus retroflexus), chamomile (scentless chamomile, Matricaria inodora), speedwell (bird's-eye speedwell, Veronica persica), barley, spring (spring barley, Hordeum vulgare), wheat, spring (spring wheat, Triticum aestivum), buckwheat, wild (wild buckwheat, Polygonum convolvulus), wild mustard (Sinapis arvensis), oat, wild (wild oat, Avena fatua), radish, wild (wild radish, Raphanus raphanistrum), […]), barley, winter (winter barley, Hordeum vulgare), and wheat, winter (winter wheat, Triticum aestivum) were planted into a silt loam soil and treated preemergence with test chemicals formulated in a non-phytotoxic solvent mixture which included a surfactant. At the same time, these species were planted in pots containing Sunshine Redi-Earth® planting medium comprising spaghnum peat moss, vermiculite, starter nutrients and dolomitic limestone and treated with postemergence applications of the test chemicals formulated in the same manner. Plants ranged in height from 2 to 18 cm (1- to 4-leaf stage). Treated plants and controls were maintained in a controlled growth environment for 14 to 21 d after which time all species were compared to controls and visually evaluated. […] A dash (-) response means no test result.

foxtail, giant = assay: Test C preemergence; type: in vivo, Setaria faberii; settings: for Plant response rating (scale of 0 to 100 where 0 is no effect and 100 is complete control): Foxtail, Giant, preemergence; for Foxtail, Giant plant response rating (0 to 100): Preemergence, visual rating after 13 to 15 d
How it was run: (§1)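 Surfactant-containing, non-phytotoxic solvent formulations of each compound were applied either preemergence to seeds in a loam soil–sand blend or postemergence to plants 2 to 18 cm tall (1- to 4-leaf stage). Postemergence plants were grown in peat moss–vermiculite medium.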

speedwell = assay: Test D preemergence; type: in vivo, Veronica persica; settings: for Plant response rating (0 to 100), Speedwell: 16 g ai/ha, 0 is no effect, 100 is complete control; for Plant response rating: Speedwell: scale 0 to 100
How it was run: (§2)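 Both application timings used one formulation, a non-phytotoxic solvent mixture with surfactant. Preemergence pots held silt loam, and postemergence plants grew in peat moss/vermiculite medium to the 1- to 4-leaf stage. All plants were held under controlled conditions for 14 to 21 d before visual scoring relative to controls.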

lambsquarters = assay: Test D postemergence; type: in vivo, Chenopodium album; settings: scale 0 to 100
How it was run: as §2

johnsongrass = assay: Test C preemergence; type: in vivo, Sorghum halepense; settings: for Plant response rating (scale of 0 to 100 where 0 is no effect and 100 is complete control): Johnsongrass, preemergence; for Johnsongrass plant response rating (0 to 100): Preemergence, visual rating after 13 to 15 d
How it was run: as §1

bromegrass, down [1] = assay: Test D preemergence; type: in vivo, Bromus tectorum; settings: for Plant response rating (0 to 100), Bromegrass, Down: 16 g ai/ha, 0 is no effect, 100 is complete control; for Plant response rating: Bromegrass, Down: scale 0 to 100
How it was run: as §2

bromegrass, down [2] = assay: Test D postemergence; type: in vivo, Bromus tectorum; settings: scale 0 to 100
How it was run: as §2

radish, wild [3] = assay: Test D postemergence; type: in vivo, Raphanus raphanistrum; settings: scale 0 to 100
How it was run: as §2

barley, spring = assay: Test D preemergence; type: in vivo, Hordeum vulgare; settings: for Plant response rating (0 to 100), Barley, Spring: 16 g ai/ha, 0 is no effect, 100 is complete control; for Plant response rating: Barley, Spring: scale 0 to 100
How it was run: as §2

barley, winter = assay: Test D preemergence; type: in vivo, Hordeum vulgare; settings: for Plant response rating (0 to 100), Barley, Winter: 16 g ai/ha, 0 is no effect, 100 is complete control; for Plant response rating: Barley, Winter: scale 0 to 100
How it was run: as §2

radish, wild [4] = assay: Test D preemergence; type: in vivo, Raphanus raphanistrum; settings: for Plant response rating: Radish, Wild: scale 0 to 100
How it was run: as §2

galium = assay: Test A postemergence; type: in vivo, Galium aparine; settings: 0 to 100 scale (0 no effect, 100 complete control), approx. 10 d
How it was run: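 Seeds sown in loam soil–sand blend received a directed preemergence soil spray of test chemical in non-phytotoxic solvent with surfactant; postemergence plants, 2 to 10 cm at one- to two-leaf stage, were sprayed with the same formulation. Injury visually rated versus untreated controls after ~10 d in greenhouse, 0–100 scale.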

soybean = assay: Test C preemergence; type: in vivo, Glycine max; settings: for Soybean plant response rating (0 to 100): Preemergence, visual rating after 13 to 15 d; for Plant response rating (scale of 0 to 100 where 0 is no effect and 100 is complete control): Soybean, preemergence, 250 g ai/ha
How it was run: as §1

FC(F)(F)COc1nc(-c2ccc(Cl)cc2)nn1Cc1ccnc(C(F)(F)F)c1 [Compound 31]
Plant response rating (0 to 100), Russian Thistle (Russian thistle): 70 | Plant response rating: Russian Thistle (Russian thistle; 62 g ai/ha): 85 | Plant response rating: Russian Thistle (Russian thistle; 125 g ai/ha): 90 | Plant response rating (scale of 0 to 100 where 0 is no effect and 100 is complete control) (foxtail, giant; 125 g ai/ha): 98 | Plant response rating (scale of 0 to 100 where 0 is no effect and 100 is complete control) (foxtail, giant; 250 g ai/ha): 100 | Foxtail, Giant plant response rating (0 to 100) (foxtail, giant; 31 g ai/ha): 90 | Foxtail, Giant plant response rating (0 to 100) (foxtail, giant; 62 g ai/ha): 95 | Plant response rating (0 to 100), Speedwell (speedwell): 100 | Plant response rating: Speedwell (speedwell; 62 g ai/ha): 100 | Plant response rating: Speedwell (speedwell; 125 g ai/ha): 100 | Plant response rating: Lambsquarters (lambsquarters; 16 g ai/ha): 75 | Plant response rating: Lambsquarters (lambsquarters; 31 g ai/ha): 95 | Plant response rating: Lambsquarters (lambsquarters; 62 g ai/ha): 85 | Plant response rating: Lambsquarters (lambsquarters; 125 g ai/ha): 90 | Plant response rating (scale of 0 to 100 where 0 is no effect and 100 is complete control) (johnsongrass; 125 g ai/ha): 85 | Plant response rating (scale of 0 to 100 where 0 is no effect and 100 is complete control) (johnsongrass; 250 g ai/ha): 95 | Johnsongrass plant response rating (0 to 100) (johnsongrass; 31 g ai/ha): 75 | Johnsongrass plant response rating (0 to 100) (johnsongrass; 62 g ai/ha): 80 | Plant response rating (0 to 100), Bromegrass, Down (bromegrass, down [1]): 25 | Plant response rating: Bromegrass, Down (bromegrass, down [1]; 31 g ai/ha): 25 | Plant response rating: Bromegrass, Down (bromegrass, down [1]; 62 g ai/ha): 50 | Plant response rating: Bromegrass, Down (bromegrass, down [1]; 125 g ai/ha): 55 | Plant response rating: Bromegrass, Down (bromegrass, down [2]; 16 g ai/ha): 25 | Plant response rating: Bromegrass, Down (bromegrass, down [2]; 31 g ai/ha): 45 | Plant response rating: Bromegrass, Down (bromegrass, down [2]; 62 g ai/ha): 50 | Plant response rating: Bromegrass, Down (bromegrass, down [2]; 125 g ai/ha): 70 | Plant response rating: Radish, Wild (radish, wild [3]; 16 g ai/ha): 95 | Plant response rating: Radish, Wild (radish, wild [3]; 31 g ai/ha): 95 | Plant response rating: Radish, Wild (radish, wild [3]; 62 g ai/ha): 95 | Plant response rating: Radish, Wild (radish, wild [3]; 125 g ai/ha): 100 | Plant response rating (0 to 100), Barley, Spring (barley, spring): 35 | Plant response rating: Barley, Spring (barley, spring; 31 g ai/ha): 45 | Plant response rating: Barley, Spring (barley, spring; 62 g ai/ha): 45 | Plant response rating: Barley, Spring (barley, spring; 125 g ai/ha): 50 | Plant response rating (0 to 100), Barley, Winter (barley, winter): 25 | Plant response rating: Barley, Winter (barley, winter; 31 g ai/ha): 35 | Plant response rating: Barley, Winter (barley, winter; 62 g ai/ha): 40 | Plant response rating: Barley, Winter (barley, winter; 125 g ai/ha): 50 | Plant response rating: Radish, Wild (radish, wild [4]; 62 g ai/ha): 100 | Plant response rating: Radish, Wild (radish, wild [4]; 125 g ai/ha): 100 | Plant response rating, Galium (galium; 125 g ai/ha): 70 | Plant response rating, Galium (galium; 500 g ai/ha): 90 | Soybean plant response rating (0 to 100) (soybean; 31 g ai/ha): 5 | Soybean plant response rating (0 to 100) (soybean; 62 g ai/ha): 5 | Plant response rating (scale of 0 to 100 where 0 is no effect and 100 is complete control) (soybean): 10

Fc1ccc(-c2nc(OCC(F)(F)F)n(Cc3ccnc(C(F)(F)F)c3)n2)cc1 [Compound 30]
Plant response rating (0 to 100), Russian Thistle (Russian thistle): 80 | Plant response rating: Russian Thistle (Russian thistle; 62 g ai/ha): 90 | Plant response rating: Russian Thistle (Russian thistle; 125 g ai/ha): 90 | Plant response rating (scale of 0 to 100 where 0 is no effect and 100 is complete control) (foxtail, giant; 125 g ai/ha): 100 | Plant response rating (scale of 0 to 100 where 0 is no effect and 100 is complete control) (foxtail, giant; 250 g ai/ha): 100 | Foxtail, Giant plant response rating (0 to 100) (foxtail, giant; 31 g ai/ha): 98 | Foxtail, Giant plant response rating (0 to 100) (foxtail, giant; 62 g ai/ha): 100 | Plant response rating (0 to 100), Speedwell (speedwell): 100 | Plant response rating: Speedwell (speedwell; 62 g ai/ha): 100 | Plant response rating: Speedwell (speedwell; 125 g ai/ha): 100 | Plant response rating: Lambsquarters (lambsquarters; 16 g ai/ha): 85 | Plant response rating: Lambsquarters (lambsquarters; 31 g ai/ha): 90 | Plant response rating: Lambsquarters (lambsquarters; 62 g ai/ha): 95 | Plant response rating: Lambsquarters (lambsquarters; 125 g ai/ha): 95 | Plant response rating (scale of 0 to 100 where 0 is no effect and 100 is complete control) (johnsongrass; 125 g ai/ha): 85 | Plant response rating (scale of 0 to 100 where 0 is no effect and 100 is complete control) (johnsongrass; 250 g ai/ha): 95 | Johnsongrass plant response rating (0 to 100) (johnsongrass; 31 g ai/ha): 35 | Johnsongrass plant response rating (0 to 100) (johnsongrass; 62 g ai/ha): 65 | Plant response rating (0 to 100), Bromegrass, Down (bromegrass, down [1]): 35 | Plant response rating: Bromegrass, Down (bromegrass, down [1]; 31 g ai/ha): 40 | Plant response rating: Bromegrass, Down (bromegrass, down [1]; 62 g ai/ha): 55 | Plant response rating: Bromegrass, Down (bromegrass, down [1]; 125 g ai/ha): 70 | Plant response rating: Bromegrass, Down (bromegrass, down [2]; 16 g ai/ha): 30 | Plant response rating: Bromegrass, Down (bromegrass, down [2]; 31 g ai/ha): 45 | Plant response rating: Bromegrass, Down (bromegrass, down [2]; 62 g ai/ha): 65 | Plant response rating: Bromegrass, Down (bromegrass, down [2]; 125 g ai/ha): 65 | Plant response rating: Radish, Wild (radish, wild [3]; 16 g ai/ha): 95 | Plant response rating: Radish, Wild (radish, wild [3]; 31 g ai/ha): 95 | Plant response rating: Radish, Wild (radish, wild [3]; 62 g ai/ha): 98 | Plant response rating: Radish, Wild (radish, wild [3]; 125 g ai/ha): 100 | Plant response rating (0 to 100), Barley, Spring (barley, spring): 30 | Plant response rating: Barley, Spring (barley, spring; 31 g ai/ha): 40 | Plant response rating: Barley, Spring (barley, spring; 62 g ai/ha): 35 | Plant response rating: Barley, Spring (barley, spring; 125 g ai/ha): 45 | Plant response rating (0 to 100), Barley, Winter (barley, winter): 20 | Plant response rating: Barley, Winter (barley, winter; 31 g ai/ha): 25 | Plant response rating: Barley, Winter (barley, winter; 62 g ai/ha): 30 | Plant response rating: Barley, Winter (barley, winter; 125 g ai/ha): 40 | Plant response rating (0 to 100), Radish, Wild (radish, wild [4]; 16 g ai/ha, 0 is no effect, 100 is complete control): 65 | Plant response rating: Radish, Wild (radish, wild [4]; 62 g ai/ha): 95 | Plant response rating: Radish, Wild (radish, wild [4]; 125 g ai/ha): 100 | Plant response rating, Galium (galium; 125 g ai/ha): 60 | Plant response rating, Galium (galium; 500 g ai/ha): 90 | Soybean plant response rating (0 to 100) (soybean; 31 g ai/ha): 10 | Soybean plant response rating (0 to 100) (soybean; 62 g ai/ha): 5 | Plant response rating (scale of 0 to 100 where 0 is no effect and 100 is complete control) (soybean): 40

Reference: patent publication US10681909B2, “Herbicidal triazoles” (FMC Corporation, priority 2014, dated 2020)
